Laboratory results: US6653442B1, “Protegrins” (priority 1993, dated 2003)
Square brackets hold non-standard residues; d marks the D form. Ends that are not written are not given here.

How the values were obtained:
[1] = tested on: lipid polysaccharide (LPS) of E. coli strain 0.55B5; experiment: Limulus amebocyte lysate (LAL) test for endotoxin binding; type: biochemical; details: LPS 0.05 endotoxin unit/ml
C. albicans, strain 820 = type: cell-based, Candida albicans; details: 90% fetal calf serum
Protocol: The units of activity in the radial diffusion assay were measured as described; 10 units correspond to a 1 mm diameter clear zone around the sample well.
(§2) The radial diffusion assay in agarose gels described in Example 1 was also used to test the activity of the purified protegrins.
Similarly, using C. albicans as a target organism, underlayers were prepared with 10 mM sodium phosphate with and without 10% normal human serum.

[2] = tested on: Pseudomonas aeruginosa (Psa); experiment: Minimal inhibitory concentration, Psa; type: cell-based
Protocol: (§1) The minimal inhibitory concentrations (MICs) of a variety of protegrins were determined against the following organisms: methicillin resistant Staphylococcus aureus (MRSA), Pseudomonas aeruginosa (Psa), vancomycin resistant Enterococcus fecium (VREF), Candida albicans (Candid) and Escherichia coli (E. Co), and are shown in Table 9.

Escherichia coli (E. Co) = experiment: Minimal inhibitory concentration, E. coli; type: cell-based
Protocol: as §1

[3] = tested on: Candida albicans (Candid); experiment: Minimal inhibitory concentration, Candida; type: cell-based
Protocol: as §1

[4] = tested on: methicillin resistant Staphylococcus aureus (MRSA); experiment: Minimal inhibitory concentration, MRSA; type: cell-based
Protocol: as §1

[5] = tested on: Trichomonas vaginallis strain C1 (ATCC 30001); strains MR and TV; experiment: Trichomonas vaginallis exposure assay; details: strains MR and TV; 100 and 50 μg/ml
E. coli ML-35P = experiment: Radial diffusion assay in agarose gels, E. coli; type: cell-based
Protocol: Aliquots (66 μl) of each fraction were dried by vacuum centrifugation and resuspended in 6.6 μl of 0.01% acetic acid. […] The units of activity in the radial diffusion assay were measured as described; 10 units correspond to a 1 mm diameter clear zone around the sample well.
as §2
The antimicrobial activity of the linearalized forms was also compared with that of the native protegrins.
This form of protegrin was tested against E. coli, L. monocytogenes, C. albicans and other microbes in the absence and presence of protease and otherwise as described for the radiodiffusion assay in agarose gels set forth in Example 1.
As described in Example 1, 0.3 mg/ml tripticase soy broth powder and 1% agarose were used as well in the underlay agar. In some cases 100 mM NaCl or RPMI plus 2.5% normal human serum (NHS) was added to the agar.

| Substance | minimal inhibitory concentration (MIC) Psa [2] | minimal inhibitory concentration (MIC) E. Co (Escherichia coli (E. Co)) | minimal inhibitory concentration (MIC) Candid [3] | minimal inhibitory concentration (MIC) MRSA [4] | other results |
| --- | --- | --- | --- | --- | --- |
| HNP-2: native human defensin used as control (CYCRIPACIAGERRYGTCIYQGRLWAFCC; ends and bridges not checked; cysteine pairing not given here; UniProt P59665 66-94, looked up) [reference compound] | – | – | – | – | gel formation in LAL test ([1]; 2.5 μg peptide in 0.2 ml): trace; gel formation in LAL test ([1]; 5 μg peptide in 0.2 ml): trace; gel formation in LAL test ([1]; 10 μg peptide in 0.2 ml): trace; activity against Candida albicans in fetal calf serum (FIG. 5c) (C. albicans, strain 820): lose their ability to inactivate C. albicans |
| HNP-3: native human defensin [reference compound] | – | – | – | – | gel formation in LAL test ([1]; 10 μg peptide in 0.2 ml): no gel |
| HNP-4: native human defensin (VCSCRLVFCRRTELRVGNCLIGGVSFTYCCTRV; ends and bridges not checked; cysteine pairing not given here; UniProt P12838 64-96, looked up) [reference compound] | – | – | – | – | gel formation in LAL test ([1]; 2.5 μg peptide in 0.2 ml): trace; gel formation in LAL test ([1]; 5 μg peptide in 0.2 ml): trace; gel formation in LAL test ([1]; 10 μg peptide in 0.2 ml): no gel |
| R-G-G-G-L-C-Y-A-R-G-F-I-A-V-C-F-G-R (RGGGLCYARGFIAVCFGR-NH2; not fully specified; printed as R-G-G-G-L-C-Y-A-R-G-F-I-A-V-C-F-G-R; cysteine pairing not given here) [IB-216] | 14 | 3.27 | 65.8 | 19 | – |
| R-G-G-G-L-C-Y-A-R-G-W-I-A-F-C-V-G-R (RGGGLCYARGWIAFCVGR-NH2; cysteine pairing not given here) [IB-214] | 0.59 | 0.81 | 32.6 | 2.1 | – |
| R-G-G-G-L-C-Y-A-R-K-G-F-A-V-C-V-G-R (RGGGLCYARKGFAVCVGR-NH2; cysteine pairing not given here) [IB-227] | 0.01 | 2.65 | – | >128 | – |
| R-G-G-G-L-C-Y-C-F-P-K-F-C-V-C-V-G-R (RGGGLCYCFPKFCVCVGR-NH2; cysteine pairing not given here) [IB-218] | 1.2 | – | 15.96 | 3.48 | – |
| R-G-G-G-L-C-Y-C-R-P-R-F-C-V-C-V-G-R-OH (RGGGLCYCRPRFCVCVGR-OH; cysteine pairing not given here) [IB-324] | – | 3.51 | 17.7 | – | – |
| R-G-G-G-L-C-Y-C-R-R-G-F-C-V-C-F-G-R (RGGGLCYCRRGFCVCFGR-NH2; cysteine pairing not given here) [IB-223] | 0.14 | – | 1.62 | 1.93 | – |
| R-G-G-G-L-C-Y-C-R-R-P-F-C-V-C-V-G-R (RGGGLCYCRRPFCVCVGR-NH2; cysteine pairing not given here) [IB-224] | 0.06 | 0.15 | 7.69 | 3.1 | – |
| R-G-G-G-L-C-Y-C-R-R-R-F-C-V-C-V-G-R-OH (RGGGLCYCRRRFCVCVGR-OH; cysteine pairing not given here) [IB-249] | – | 0.4 | 3.29 | – | – |
| R-G-G-G-L-C-Y-T-R-P-R-F-T-V-C-V-G-R (RGGGLCYTRPRFTVCVGR-NH2; cysteine pairing not given here) [IB-226] | 0.07 | 1.53 | – | 8.7 | – |
| R-G-G-R-L-C-Y-A-R-R-R-F-A-V-C-V-G-R (RGGRLCYARRRFAVCVGR) [IB-289] | 0.05 | 0.4 | 1.6 | – | – |
| R-G-G-R-L-C-Y-A-R-R-R-F-A-V-C-V-G-R-OH (RGGRLCYARRRFAVCVGR-OH; cysteine pairing not given here) [IB-288] | 0.05 | 0.4 | 1.6 | – | – |
| R-G-G-R-L-C-Y-C-R-R-R-F-C-V-C-V-G-R (all †) ([dR]GG[dR][dL][dC][dY][dC][dR][dR][dR][dF][dC][dV][dC][dV]G[dR]-NH2; cysteine pairing not given here) [enantioPG-1] | – | – | – | – | susceptibility of metronidazole-resistant clinical isolates [5]: susceptible; inhibition of growth of E. coli (FIG. 12a) (E. coli ML-35P; absence of protease): equally effective; antibacterial effect in presence of protease (FIG. 12b) (E. coli ML-35P; trypsin or chymotrypsin, organism of FIG. 12b not stated): neither trypsin nor chymotrypsin inhibits the antibacterial effect |
| R-G-G-R-L-C-Y-C-R-R-R-F-C-V-C-V-G-R-OH (RGGRLCYCRRRFCVCVGR-OH; cysteine pairing not given here) [IB-247] | 0.11 | 0.6 | 1.2 | 1.5 | – |
| R-G-G-R-V-C-Y-C-R-G-R-F-C-V-C-V (RGGRVCYCRGRFCVCV) [IB-400] | 2 | – | – | 8 | – |
| R-G-G-R-V-C-Y-C-R-G-R-F-C-V-C-V-G-R (RGGRVCYCRGRFCVCVGR) [IB-398] | 1 | – | – | 8 | – |
| R-G-G-R-V-C-Y-C-R-G-R-F-C-V-C-V-OH (RGGRVCYCRGRFCVCV-OH; cysteine pairing not given here) [IB-401] | 1 | – | – | 64 | – |
